pEC50: −log10 of the molar value.
These molecules were tested on HEK293T cells carrying the ATF4 luciferase reporter (assay: ATF4-Luc assay (in vitro model of VWMD)). Settings: Homo sapiens, HEK-293T; HEK293T cells with ATF4 5'-UTR firefly luciferase reporter; 1 μg/mL tunicamycin; 7 hours; One Glo luminescence.
Format: cell-based
Protocol: In order to test exemplary compounds of the invention in a cellular context, a stable VWMD cell line was first constructed. The ATF4 reporter was prepared by fusing the human full-length ATF4 5′-UTR (NCBI Accession No. BC022088.2) in front of the firefly luciferase (FLuc) coding sequence lacking the initiator methionine as described in Sidrauski et al (eLife 2013). The construct was used to produce recombinant retroviruses using standard methods and the resulting viral supernatant was used to transduce HEK293T cells, which were then subsequently selected with puromycin to generate a stable cell line.
HEK293T cells carrying the ATF4 luciferase reporter were plated on polylysine coated 384-well plates (Greiner Bio-one) at 30,000 cells per well. Cells were treated the next day with 1 μg/mL tunicamycin and 200 nM of a compound of Formula (I) for 7 hours. Luminescence was measured using One Glo (Promega) as specified by the manufacturer. Cells were maintained in DMEM with L-glutamine supplemented with 10% heat-inactivated FBS (Gibco) and Antibiotic-Antimycotic solution (Gibco).
Table 2 below summarizes the EC50 data obtained using the ATF4-Luc assay for exemplary compounds of the invention.

First: O=C(N[C@@H]1CC[C@@H](C(=O)NCc2ccc(C(F)(F)F)cn2)OC1)C1CNc2cc(Cl)ccc2O1 (mixture of isomers) [Compound 165, 6-chloro-N-[(3R,6S)-6-({[5-(trifluoromethyl)pyridin-2-yl]methyl}carbamoyl)oxan-3-yl]-3,4-dihydro-2H-1,4-benzoxazine-2-carboxamide]
Second: O=C(NCc1ccc(C(F)(F)F)cn1)[C@@H]1CC[C@@H](NC(=O)[C@@H]2CNc3cc(Cl)ccc3O2)CO1 (single isomer, unassigned) [Compound 161]
The pEC50 of the first is higher: 6.60 to 7.30 for the first, 6.30 to 6.60 for the second. The first is the more potent here.

O=C(COc1ccc(Cl)c(F)c1)N[C@H]1CC[C@@H](C(=O)NCc2ccc(C(F)(F)F)cn2)OC1 (single isomer, unassigned) [Compound 162] and O=C(COc1ccc(Cl)c(F)c1)N[C@@H]1CC[C@H](C(=O)NCc2ccc(C(F)(F)F)cn2)OC1 (single isomer, unassigned) [Compound 163] cannot be ordered by pEC50: less than 5.70 for the first, less than 5.70 for the second.

Compared with O=C(NCc1ccc(C(F)(F)F)cn1)[C@@H]1CC[C@@H](NC(=O)[C@H]2CNc3cc(Cl)ccc3O2)CO1 (single isomer, unassigned) [Compound 164], O=C(COc1ccc(Cl)c(F)c1)N[C@H]1CC[C@H](C(=O)NCc2ccc(C(F)(F)F)cn2)CC1 [Compound 119, (1r,4r)-4-[2-(4-chloro-3-fluorophenoxy)acetamido]-N-{[5-(trifluoromethyl)pyridin-2-yl]methyl}cyclohexane-1-carboxamide] is higher in pEC50: 6.60 to 7.30 for the first, greater than 8.00 for the second.

First: O=C(COc1ccc(Cl)c(Cl)c1)N[C@H]1CC[C@H](C(=O)NCc2ccc(C(F)(F)F)nc2)CC1 [Compound 100, (1r,4r)-4-[2-(3,4-dichlorophenoxy)acetamido]-N-{[6-(trifluoromethyl)pyridin-3-yl]methyl}cyclohexane-1-carboxamide]
Second: COc1ccc(CNC(=O)[C@H]2CC[C@H](NC(=O)COc3ccc(Cl)c(Cl)c3)CC2)cn1 [Compound 105, (1r,4r)-4-[2-(3,4-dichlorophenoxy)acetamido]-N-[(6-methoxypyridin-3-yl)methyl]cyclohexane-1-carboxamide]
The pEC50 of the first is higher: 7.30 to 8.00 for the first, less than 5.70 for the second. The first is the more potent here.

First: Cc1ccc(CNC(=O)[C@H]2CC[C@H](NC(=O)COc3ccc(Cl)c(Cl)c3)CC2)nc1 [Compound 101, (1r,4r)-4-[2-(3,4-dichlorophenoxy)acetamido]-N-[(5-methylpyridin-2-yl)methyl]cyclohexane-1-carboxamide]
Second: O=C(COc1ccc(Cl)c(Cl)c1)N[C@H]1CC[C@H](C(=O)NCc2ccc(OC(F)F)cn2)CC1 [Compound 120, (1r,4r)-4-[2-(3,4-dichlorophenoxy)acetamido]-N-{[5-(difluoromethoxy)pyridin-2-yl]methyl}cyclohexane-1-carboxamide]
The pEC50 of the first is lower: less than 5.70 for the first, 7.30 to 8.00 for the second. The second is the more potent here.

O=C(COc1ccc(Cl)c(Cl)c1)N[C@H]1CC[C@H](C(=O)Nc2ccc(OC(F)F)nc2)CC1 [Compound 102, (1r,4r)-4-[2-(3,4-dichlorophenoxy)acetamido]-N-[6-(difluoromethoxy)pyridin-3-yl]cyclohexane-1-carboxamide] and O=C(COc1ccc(Cl)c(F)c1)N[C@H]1CC[C@H](C(=O)Nc2ccc(OC(F)F)nc2)CC1 [Compound 109, (1r,4r)-4-[2-(4-chloro-3-fluorophenoxy)acetamido]-N-[6-(difluoromethoxy)pyridin-3-yl]cyclohexane-1-carboxamide] cannot be ordered by pEC50: greater than 8.00 for the first, greater than 8.00 for the second.

First: O=C(COc1ccc(Cl)c(Cl)c1)N[C@H]1CC[C@H](C(=O)Nc2ccc(OCC(F)(F)F)nc2)CC1 [Compound 103, (1r,4r)-4-[2-(3,4-dichlorophenoxy)acetamido]-N-[6-(2,2,2-trifluoroethoxy)pyridin-3-yl]cyclohexane-1-carboxamide]
Second: O=C(COc1ccc(Cl)c(F)c1)N[C@H]1CC[C@H](C(=O)Nc2ccc(OCC(F)(F)F)nc2)CC1 [Compound 115, (1r,4r)-4-[2-(4-chloro-3-fluorophenoxy)acetamido]-N-[6-(2,2,2-trifluoroethoxy)pyridin-3-yl]cyclohexane-1-carboxamide]
The pEC50 of the first is lower: less than 5.70 for the first, 5.70 to 6.30 for the second. The second is the more potent here.

Compared with O=C(COc1ccc(Cl)c(Cl)c1)N[C@H]1CC[C@H](C(=O)NCc2ccc(OC(F)F)cc2)CC1 [Compound 104, (1r,4r)-4-[2-(3,4-dichlorophenoxy)acetamido]-N-{[4-(difluoromethoxy)phenyl]methyl}cyclohexane-1-carboxamide], O=C(COc1ccc(Cl)c(F)c1)N[C@H]1CC[C@H](C(=O)NCc2ccc(OC(F)F)cn2)CC1 [Compound 107, (1r,4r)-4-[2-(4-chloro-3-fluorophenoxy)acetamido]-N-{[5-(difluoromethoxy)pyridin-2-yl]methyl}cyclohexane-1-carboxamide] is higher in pEC50: 6.60 to 7.30 for the first, 7.30 to 8.00 for the second.

CN(Cc1cccnc1)C(=O)[C@H]1CC[C@H](NC(=O)COc2ccc(Cl)c(Cl)c2)CC1 [Compound 106, (1r,4r)-4-[2-(3,4-dichlorophenoxy)acetamido]-N-methyl-N-[(pyridin-3-yl)methyl]cyclohexane-1-carboxamide] and Cc1cncc(CNC(=O)[C@H]2CC[C@H](NC(=O)COc3ccc(Cl)c(F)c3)CC2)c1 [Compound 108, (1r,4r)-4-[2-(4-chloro-3-fluorophenoxy)acetamido]-N-[(5-methylpyridin-3-yl)methyl]cyclohexane-1-carboxamide] cannot be ordered by pEC50: less than 5.70 for the first, less than 5.70 for the second.

O=C(COc1ccc(Cl)c(F)c1)N[C@H]1CC[C@H](C(=O)Nc2ccc(OC(F)(F)F)cn2)CC1 [Compound 110, (1r,4r)-4-[2-(4-chloro-3-fluorophenoxy)acetamido]-N-[5-(trifluoromethoxy)pyridin-2-yl]cyclohexane-1-carboxamide] and O=C(COc1ccc(Cl)c(F)c1)N[C@H]1CC[C@H](C(=O)Nc2ccc(Cl)c(F)c2)CC1 [Compound 111, (1r,4r)-4-[2-(4-chloro-3-fluorophenoxy)acetamido]-N-(4-chloro-3-fluorophenyl)cyclohexane-1-carboxamide] fall in the same range of pEC50: 7.30 to 8.00 for the first, 7.30 to 8.00 for the second.

First: O=C(COc1ccc(Cl)c(F)c1)N[C@H]1CC[C@H](C(=O)NCc2ccc(Cl)c(F)c2)CC1 [Compound 112, (1r,4r)-4-[2-(4-chloro-3-fluorophenoxy)acetamido]-N-[(4-chloro-3-fluorophenyl)methyl]cyclohexane-1-carboxamide]
Second: O=C(COc1ccc(Cl)c(F)c1)N[C@H]1CC[C@H](C(=O)NCc2ccc(OC(F)F)nc2)CC1 [Compound 116, (1r,4r)-4-[2-(4-chloro-3-fluorophenoxy)acetamido]-N-{[6-(difluoromethoxy)pyridin-3-yl]methyl}cyclohexane-1-carboxamide]
The pEC50 of the first is higher: greater than 8.00 for the first, 6.60 to 7.30 for the second.

O=C(COc1ccc(Cl)c(F)c1)N[C@H]1CC[C@H](C(=O)N2CCC[C@@H]2c2cc(F)ccc2F)CC1 [Compound 113, 2-(4-chloro-3-fluorophenoxy)-N-{(1R,4r)-4-[(2R)-2-(2,5-difluorophenyl)pyrrolidine-1-carbonyl]cyclohexyl}acetamide] and O=C(COc1ccc(Cl)c(F)c1)N[C@H]1CC[C@H](C(=O)N2CCC[C@H]2c2cc(F)ccc2F)CC1 [Compound 114, 2-(4-chloro-3-fluorophenoxy)-N-{(1S,4r)-4-[(2S)-2-(2,5-difluorophenyl)pyrrolidine-1-carbonyl]cyclohexyl}acetamide] cannot be ordered by pEC50: less than 5.70 for the first, less than 5.70 for the second.

O=C(COc1ccc(Cl)c(F)c1)N[C@H]1CC[C@H](C(=O)NCc2ncco2)CC1 [Compound 117, (1r,4r)-4-[2-(4-chloro-3-fluorophenoxy)acetamido]-N-[(1,3-oxazol-2-yl)methyl]cyclohexane-1-carboxamide] and O=C(COc1ccc(Cl)c(F)c1)N[C@H]1CC[C@H](C(=O)NCc2cnco2)CC1 [Compound 118, (1r,4r)-4-[2-(4-chloro-3-fluorophenoxy)acetamido]-N-[(1,3-oxazol-5-yl)methyl]cyclohexane-1-carboxamide] cannot be ordered by pEC50: less than 5.70 for the first, less than 5.70 for the second.

Compared with O=C(COc1ccc(Cl)c(F)c1)N[C@H]1C[C@H](C(=O)NCc2ccc(Cl)cn2)C1 [Compound 121, (1r,3r)-3-[2-(4-chloro-3-fluorophenoxy)acetamido]-N-[(5-chloropyridin-2-yl)methyl]cyclobutane-1-carboxamide], O=C(COc1ccc(Cl)c(F)c1)N[C@H]1C[C@H](C(=O)NCc2ccc(C(F)(F)F)cn2)C1 [Compound 122, (1r,3r)-3-[2-(4-chloro-3-fluorophenoxy)acetamido]-N-{[5-(trifluoromethyl)pyridin-2-yl]methyl}cyclobutane-1-carboxamide] is lower in pEC50: 6.30 to 6.60 for the first, 5.70 to 6.30 for the second.

O=C(COc1ccc(Cl)c(F)c1)N[C@H]1C[C@H](C(=O)N2CC(c3ccc(Cl)cc3)C2)C1 [Compound 123, 2-(4-chloro-3-fluorophenoxy)-N-{(1r,3r)-3-[3-(4-chlorophenyl)azetidine-1-carbonyl]cyclobutyl}acetamide] and O=C(COc1ccc(Cl)c(F)c1)N[C@H]1CC[C@H](C(=O)N2CCN(c3ccc(Cl)cc3)C(=O)C2)CC1 [Compound 125, 2-(4-chloro-3-fluorophenoxy)-N-{(1r,4r)-4-[4-(4-chlorophenyl)-3-oxopiperazine-1-carbonyl]cyclohexyl}acetamide] fall in the same range of pEC50: 6.30 to 6.60 for the first, 6.30 to 6.60 for the second.

In the case of O=C(COc1ccc(Cl)c(F)c1)N[C@H]1CC[C@H](C(=O)N2CC3(CN(c4ccc(Cl)c(F)c4)C3)C2)CC1 [Compound 124, 2-(4-chloro-3-fluorophenoxy)-N-{(1r,4r)-4-[6-(4-chloro-3-fluorophenyl)-2,6-diazaspiro[3.3]heptane-2-carbonyl]cyclohexyl}acetamide], the pEC50 was less than 5.70.
